Experimental data published in paper PMC9230575, “^68Ga-Labeled [Leu^13ψThz^14]Bombesin(7–14) Derivatives: Promising GRPR-Targeting PET Tracers with Low Pancreas Uptake” (Molecules, 2022).
*1 amine or outer side, *2 acyl side, *3 side chain or, on linkers, in order; H or OH if unused. Where a SMILES comes first, the peptide text is derived from it. [ ]: non-standard residue; d: D form. The star is where a group is joined. DOTA = O=C(O)CN1CCN(CC(=O)O)CCN(CC(=O)*)CCN(CC(=O)O)CC1; Leuψ(CH2N)ThzNH2 = CC(C)C[C@@H](CN1CSC[C@H]1C(N)=O)N*; d2Nal = N[C@H](Cc1ccc2ccccc2c1)C(=O)O; Cya = N[C@@H](CS(=O)(=O)O)C(=O)O; X1 = O=C(CN1CCC(N[*:1])CC1)[*:2]

Assays:
GRPR = biological target: T1, GRPR (Homo sapiens, UniProt P30550); assay: Fluorometric intracellular calcium release assay using PC-3 cells; type: cell-based; conditions: 50 nM ligand
T1 construct: endogenous in cells; host or cells: PC-3 prostate cancer cells
T1 sequence (P30550 whole entry): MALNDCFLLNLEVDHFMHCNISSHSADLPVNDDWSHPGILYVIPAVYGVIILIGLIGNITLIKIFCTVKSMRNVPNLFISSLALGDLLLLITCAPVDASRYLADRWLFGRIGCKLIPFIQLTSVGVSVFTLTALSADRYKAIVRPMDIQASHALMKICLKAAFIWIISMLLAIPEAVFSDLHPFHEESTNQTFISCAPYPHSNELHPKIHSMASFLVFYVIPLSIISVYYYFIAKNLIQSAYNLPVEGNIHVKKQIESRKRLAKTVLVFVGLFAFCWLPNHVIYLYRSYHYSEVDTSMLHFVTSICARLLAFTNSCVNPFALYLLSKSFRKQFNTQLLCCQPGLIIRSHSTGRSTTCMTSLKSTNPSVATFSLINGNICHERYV
Experimental: Following previously published procedures, 5 × 10^4 PC-3 cells were seeded in 96-well clear-bottom black plates 24 h prior to the assay. The growth medium was removed and replaced with a loading buffer containing a calcium-sensitive dye (FLIPR Calcium 6 assay kit, Molecular Device, San Jose, CA, USA). After incubation at 37 °C for 30 min, the plates were placed in a FlexStation 3 microplate reader (Molecular Devices). […] Agonistic/antagonistic properties were determined using the relative fluorescent unit (RFU = max–min).

physchem = conditions: 1-octanol/phosphate buffer, pH 7.4
Experimental: Briefly, aliquots (2 μL) of the ^68Ga-labeled peptides were added to a vial containing 3 mL of 1-octanol and 3 mL of 0.1 M phosphate buffer (pH 7.4). The mixture was vortexed for 1 min and then centrifuged at 5000 rpm for 10 min. Samples of the 1-octanol (1 mL) and buffer (1 mL) layers were taken and counted in a gamma counter. LogD7.4 was calculated using the following equation: LogD7.4 = log10[(counts in 1-octanol phase)/(counts in buffer phase)].

PC-3 tumor xenografts [1] = assay: PET/CT imaging of mice bearing PC-3 tumor xenografts; type: in vivo; conditions: 1 h post-injection
Experimental: The PET/CT imaging experiments were carried out using a Siemens (Knoxville, TN, USA) Inveon micro-PET/CT scanner. […] At 50 min post-injection, a 10 min CT scan was conducted: first for localization and attenuation corrections after segmentation for reconstructing the PET images, followed by a 10 min static PET imaging acquisition.

PC-3 tumor xenografts [2] = assay: Ex vivo biodistribution in PC-3 tumor-bearing mice; conditions: 1 h post-injection, n = 4
Experimental: For biodistribution studies, the mice (n = 4) were injected with the radiotracer (~2–4 MBq, 0.03–0.07 nmol) as described above. […] At 1 h post-injection, the mice were euthanized by CO2 inhalation. Blood was withdrawn by cardiac puncture, and organs/tissues of interest were collected, weighed and counted using a Perkin Elmer (Waltham, MA, USA) Wizard2 2480 automatic gamma counter.

[3] = for Fraction remaining intact in plasma: NRG mice, 15 min post-injection, n = 3; for Intact tracer in urine: mouse urine samples collected at 15 min post-injection
Experimental: Imaging, biodistribution, and in vivo stability studies were performed using male NOD.Cg-Rag1^tm1Mom Il2rg^tm1Wjl/SzJ (NRG) mice (from in-house breeding colonies) following previously published procedures. […] When the tumor grew to 5–8 mm in diameter over 3–4 weeks, the mice were used for PET/CT imaging and biodistribution studies.
At 15 min post-injection, the mice were sedated and euthanized, and urine and blood were collected. The plasma was extracted from whole blood by the addition of CH3CN (500 μL), vortexing, centrifugation, and the separation of the supernatants. The plasma and urine samples were analyzed via radio-HPLC by using the conditions for quality control of these ^68Ga-labeled radioligands (Table S3).

Compound | Ca2+ efflux (relative fluorescence units, max-min) (GRPR) [RFU] | logD (physchem) | Excretion pathway in PET images (PC-3 tumor xenografts [1]) | also measured
[D-Phe^6,Leu-NHEt^13,des-Met^14]Bombesin(6–14) | 25.3 ± 1.92 | – | – | –
CC(C)C[C@@H](CN1CSC[C@H]1C(N)=O)NC(=O)[C@H](Cc1c[nH]cn1)NC(=O)CNC(=O)[C@@H](NC(=O)[C@H](C)NC(=O)[C@H](Cc1c[nH]c2ccccc12)NC(=O)[C@H](CCC(N)=O)NC(=O)[C@@H](Cc1ccc2ccccc2c1)NC(=O)CN1CCC(NC(=O)[C@H](CS(=O)(=O)O)NC(=O)CN2CCN(CC(=O)O)CCN(CC(=O)O)CCN(CC(=O)O)CC2)CC1)C(C)C [Ga-TacsBOMB6] ({DOTA}-[Cya][X1][d2Nal]QWAVGH-{Leuψ(CH2N)ThzNH2}) | 23.0 ± 0.06 | – | – | –
CC(C)C[C@@H](CN1CSC[C@H]1C(N)=O)NC(=O)[C@H](Cc1c[nH]cn1)NC(=O)CNC(=O)[C@@H](NC(=O)[C@H](C)NC(=O)[C@H](Cc1c[nH]c2ccccc12)NC(=O)[C@H](CCC(N)=O)NC(=O)[C@@H](Cc1ccc2ccccc2c1)NC(=O)CN1CCC(NC(=O)[C@H](CS(=O)(=O)O)NC(=O)CN2CCN(CC(=O)O)CCN(CC(=O)O)CCN(CC(=O)O)CC2)CC1)C(C)C [[^68Ga]Ga-TacsBOMB6, metal not drawn] ({DOTA}-[Cya][X1][d2Nal]QWAVGH-{Leuψ(CH2N)ThzNH2}) | – | -2.55 ± 0.16 | primarily excreted through the renal pathway | –
CC(C)C[C@H](NC(=O)C[C@H](O)[C@H](CC(C)C)NC(=O)[C@H](Cc1c[nH]cn1)NC(=O)CNC(=O)[C@@H](NC(=O)[C@H](C)NC(=O)[C@H](Cc1c[nH]c2ccccc12)NC(=O)[C@H](CCC(N)=O)NC(=O)[C@@H](Cc1ccccc1)NC(=O)CN1CCC(NC(=O)CN2CCN(CC(=O)O)CCN(CC(=O)O)CCN(CC(=O)O)CC2)CC1)C(C)C)C(N)=O [[^68Ga]Ga-RM2, metal not drawn, reference compound] | – | -2.76 ± 0.03 | primarily excreted through the renal pathway | Spleen uptake (PC-3 tumor xenografts [2]): 0.44 ± 0.26 %ID/g; Fraction remaining intact in plasma [3]: 71.9 ± 10.4%; Intact tracer in urine [3]: no intact
bombesin | 754 ± 38.3 | – | – | –
CC(C)C[C@@H](CN1CSC[C@H]1C(N)=O)NC(=O)[C@H](Cc1c[nH]cn1)NC(=O)CNC(=O)[C@@H](NC(=O)[C@H](C)NC(=O)[C@H](Cc1c[nH]c2ccccc12)NC(=O)[C@H](CCC(N)=O)NC(=O)[C@@H](Cc1ccccc1)NC(=O)CN1CCC(NC(=O)CN2CCN(CC(=O)O)CCN(CC(=O)O)CCN(CC(=O)O)CC2)CC1)C(C)C [[^68Ga]Ga-TacsBOMB2, metal not drawn] | – | -2.39 ± 0.13 | primarily excreted through the renal pathway | Fraction remaining intact in plasma [3]: 83.3 ± 1.45%; Intact tracer in urine [3]: no intact
CC(C)C[C@@H](CN1CSC[C@H]1C(N)=O)NC(=O)[C@H](Cc1c[nH]cn1)NC(=O)CNC(=O)[C@@H](NC(=O)[C@H](C)NC(=O)[C@H](Cc1c[nH]c2ccccc12)NC(=O)[C@H](CCC(N)=O)NC(=O)[C@@H](Cc1ccc2ccccc2c1)NC(=O)CN1CCC(NC(=O)CN2CCN(CC(=O)O)CCN(CC(=O)O)CCN(CC(=O)O)CC2)CC1)C(C)C [[^68Ga]Ga-TacsBOMB3, metal not drawn] | – | -1.75 ± 0.04 | primarily excreted through the renal pathway | –
CC(C)C[C@@H](CN1CSC[C@H]1C(N)=O)NC(=O)[C@H](Cc1c[nH]cn1)NC(=O)CNC(=O)[C@@H](NC(=O)[C@H](C)NC(=O)[C@H](Cc1c[nH]c2ccccc12)NC(=O)[C@H](CCC(N)=O)NC(=O)[C@H]1Cc2c([nH]c3ccccc23)CN1C(=O)CN1CCC(NC(=O)CN2CCN(CC(=O)O)CCN(CC(=O)O)CCN(CC(=O)O)CC2)CC1)C(C)C [Ga-TacsBOMB4] | 9.30 ± 3.74 | – | – | –
Nc1ncnc2c1ncn2[C@@H]1O[C@H](COP(=O)(O)OP(=O)(O)OP(=O)(O)O)[C@@H](O)[C@H]1O [ATP, adenosine triphosphate] | 334 ± 39.0 | – | – | –
